Values after ≈ are worked out from the molar mass of the structure shown. Where a SMILES comes first, the peptide text is derived from it. Bridges are numbered along the chain shown (N, C = ends). The star is where a group is joined. Palmitoyl = CCCCCCCCCCCCCCCC(=O)*
Columns and labels:
[1] = RP-HPLC determination of peptide hydrophobicity; type: physicochemical; settings: 0.1% TFA; for reduced retention time t’R: RP-HPLC retention as measure of hydrophobicity, Waters X-Bridge Shield RP-18 3.0 × 100 mm, 3.5 μm, linear 20–65% acetonitrile in water over 30 min, 0.5 mL/min, 25.0 °C, UV 214 nm, 1 g/L, triplicate; for ∆tR: tR of cyclic analog − tR of parent lipopeptide, RP-HPLC, RP-18, 20–65% acetonitrile over 30 min
Description: The peptides were analyzed by RP-HPLC to determine relative hydrophobicity vs. retention time of each compound. In general, more hydrophobic lipopeptides will elute later than hydrophilic ones. Using this simple rule enables comparison of hydrophobicity by reduced retention times (t’R) and differences in retention time between the cyclic analog and its linear parent lipopeptide (Table 1). It can be deduced that the presence of cystine moiety has led to increased hydrophobicity. All cyclic lipopeptides are more hydrophobic than their linear counterparts but the effect of disulfide cyclization on retention is different in each pair. The highest increase in retention was noticed for the shortest lipopeptides L1 (C16-KKK-NH2) and C1 (C16-CKKKC-NH2). The differences between lipopeptides with one arginine residue indicate that its position is crucial for retention and therefore hydrophobicity. To learn how the arginine position affects hydrophobicity, the retention time of compound L2 (C16-KKKK-NH2) or C2 (C16-CKKKKC-NH2) was subtracted from that of the lipopeptides with one arginine residue, linear (L3, L4, L5, L6) or cyclic (C3, C4, C5, C6), respectively. In Figure 2 the effect of arginine position on retention time is related to unsubstituted lipopeptide.
To determine peptide hydrophobicity, a Waters Alliance e2695 system with a Waters 2998 PDA Detector (software-Empower 3, Waters, Milford, MA, USA) was used. All analyses were carried out on a Waters X-Bridge Shield RP-18 column (3.0 × 100 mm, 3.5 μm particle size, 130 Å pore size). The Shield Technology column with embedded polar groups was used to minimize interactions of unreacted silanol groups with basic lipopeptides. The peptides were dissolved in water (0.1% TFA, v/v) up to a concentration of 1 g/L. UV detection at 214 nm was used, and samples (10 μL) were eluted with a linear 20–65% acetonitrile gradient in deionized water over 30 min at 25.0 ± 0.1 °C. The mobile phase flow rate was 0.5 mL/min. Both eluents contained 0.1% (v/v) of TFA. Each peptide sample was analyzed in triplicate. Maximum standard deviation and coefficient of variation were 0.042 and 0.25%, respectively.

[2] = tested on: Candida albicans ATCC 10231; type: cell-based; settings: ATCC 10231, 24 h
Description: (§1) The Staphylococcus aureus ATCC 25923, Staphylococcus epidermidis ATCC 14990, Escherichia coli ATCC 25922, Pseudomonas aeruginosa ATCC 9027, Candida albicans ATCC 10231, Candida glabrata ATCC 15126, Candida lipolytica PCM 2680-FY, and Candida tropicalis PCM 2709-FY strains were acquired from the Polish Collection of Microorganisms (PCM, Polish Academy of Sciences, Wrocław, Poland) and from the American Type Culture Collection (ATCC). All the strains were stored at −80 °C in Roti-Store cryo vials and before the tests were transferred into fresh Mueller–Hinton broth (MHB, Biocorp, Warsaw, Poland) for bacteria or RPMI-1640 (Sigma-Aldrich, Steinheim, Germany) for fungi and incubated for 24 h at 37 °C. Then, the cultures were seeded on Mueller–Hinton agar (BioMaxima, Lublin, Poland) or Sabouraud dextrose agar (SDA, BioMaxima, Lublin, Poland) plates, respectively, and incubated as just mentioned. These agar cultures were used for further microbiological assays. Cell densities for all assays were adjusted spectrophotometrically (Multiskan GO Microplate Spectrophotometer, Thermo Fisher Scientific, Vantaa, Finland) at 600 and 660 nm for bacteria and fungi, respectively.
(§2) The MICs were determined by broth microdilution method according to the Clinical and Laboratory Standard Institute guidelines For this purpose, initial inoculums of bacteria (5 × 10^5 CFU/mL) in MHB and yeasts (2 × 10^3 CFU/mL) in RPMI-1640 with 2% D-glucose were exposed to the ranging concentration of lipopeptides (0.5–256 μg/mL) and incubated at 37 °C for 18 h and 24 h, respectively. The experiments were conducted on 96-well microtiter polystyrene plates. The growth was assessed visually after incubation and the MIC was assumed as the lowest peptide concentration at which a noticeable growth of microorganisms was inhibited. All experiments were conducted in triplicate.

[3] = tested on: Candida glabrata ATCC 15126; type: cell-based; settings: ATCC 15126, 24 h
Description: as §1, §2

[4] = tested on: Candida lipolytica PCM 2680-FY; type: cell-based; settings: 24 h
Description: as §1, §2

[5] = tested on: Candida tropicalis PCM 2709-FY; type: cell-based; settings: PCM 2709-FY, 24 h
Description: as §1, §2

[6] = tested on: Escherichia coli ATCC 25922; type: cell-based; settings: ATCC 25922, 18 h
Description: as §1, §2

[7] = tested on: Pseudomonas aeruginosa ATCC 9027; type: cell-based; settings: ATCC 9027, 18 h
Description: as §1, §2

[8] = tested on: Staphylococcus epidermidis ATCC 14990; type: cell-based; settings: ATCC 14990, 18 h
Description: as §1, §2

[9] = tested on: Candida albicans ATCC 10231; type: cell-based; settings: ATCC 10231, 24 h; remark: listed apart in the source
Description: as §1
(§3) The assay was performed to evaluate the effect of the lipopeptides in preventing biofilm formation. The preparation of inoculums was followed by a ca. 500-fold dilution of the 24 h cultures of microorganisms. Briefly, 50 μL of the compounds in the concentration range, diluted in appropriate medium, were prepared on 96-well polystyrene flat-bottom plates. Subsequently, the 50 μL of the bacterial/fungal inoculums were added to reach the same microbial density as that in the MBEC assay. After 24 h of incubation at 37 °C, the wells were rinsed three times with PBS and the fresh media with resazurin (4 g/L) were added. The MBICs were read after 1 h. All experiments were conducted in triplicate.

[10] = tested on: Candida glabrata ATCC 15126; type: cell-based; settings: ATCC 15126, 24 h; remark: listed apart in the source
Description: as §1, §3

[11] = tested on: Candida lipolytica PCM 2680-FY; type: cell-based; settings: 24 h; remark: listed apart in the source
Description: as §1, §3

[12] = tested on: Candida tropicalis PCM 2709-FY; type: cell-based; settings: PCM 2709-FY, 24 h; remark: listed apart in the source
Description: as §1, §3

[13] = tested on: Escherichia coli ATCC 25922; type: cell-based; settings: ATCC 25922, 24 h
Description: as §1, §3

[14] = tested on: Pseudomonas aeruginosa ATCC 9027; type: cell-based; settings: ATCC 9027, 24 h
Description: as §1, §3

[15] = tested on: Staphylococcus aureus ATCC 25923; type: cell-based; settings: ATCC 25923, 24 h
Description: as §1, §3

[16] = tested on: Staphylococcus epidermidis ATCC 14990; type: cell-based; settings: ATCC 14990, 24 h
Description: as §1, §3

| reduced retention time t’R [1] | ∆tR [1] | MIC C. albicans [2] | MIC C. glabrata [3] | MIC C. lipolytica [4] | MIC C. tropicalis [5] | MIC E. coli [6] | MIC P. aeruginosa [7] | MIC S. epidermidis [8] | Compound | MBIC C. albicans [9] | MBIC C. glabrata [10] | MBIC C. lipolytica [11] | MBIC C. tropicalis [12] | MBIC E. coli [13] | MBIC P. aeruginosa [14] | MBIC S. aureus [15] | MBIC S. epidermidis [16] |
| --- | --- | --- | --- | --- | --- | --- | --- | --- | --- | --- | --- | --- | --- | --- | --- | --- | --- |
| 18.05 min | +1.91 min | 8 µg/mL (≈ 9.48 µM) | 4 µg/mL (≈ 4.74 µM) | 4 µg/mL (≈ 4.74 µM) | 4 µg/mL (≈ 4.74 µM) | 16 µg/mL (≈ 19 µM) | 256 µg/mL (≈ 303 µM) | 4 µg/mL (≈ 4.74 µM) | CCCCCCCCCCCCCCCC(=O)N[C@H]1CSSC[C@@H](C(N)=O)NC(=O)[C@H](CCCCN)NC(=O)[C@H](CCCCN)NC(=O)[C@H](CCCCN)NC1=O [C1, C16-CKKKC-NH2] (Palmitoyl-CKKKC-NH2; disulfide 1-5) | 32 µg/mL | 32 µg/mL | 16 µg/mL | 32 µg/mL | 64 µg/mL | 128 µg/mL | 16 µg/mL | 16 µg/mL |
| 16.14 min | – | 32 µg/mL (≈ 50 µM) | 32 µg/mL (≈ 50 µM) | 16 µg/mL (≈ 25 µM) | 8 µg/mL (≈ 12.5 µM) | 16 µg/mL (≈ 25 µM) | 64 µg/mL (≈ 100 µM) | 8 µg/mL (≈ 12.5 µM) | CCCCCCCCCCCCCCCC(=O)N[C@@H](CCCCN)C(=O)N[C@@H](CCCCN)C(=O)N[C@@H](CCCCN)C(N)=O [L1, C16-KKK-NH2] | 128 µg/mL | 128 µg/mL | 32 µg/mL | 16 µg/mL | 32 µg/mL | 32 µg/mL | 32 µg/mL | 16 µg/mL |
| 16.83 min | +1.25 min | 16 µg/mL (≈ 15.6 µM) | 4 µg/mL (≈ 3.89 µM) | 4 µg/mL (≈ 3.89 µM) | 4 µg/mL (≈ 3.89 µM) | 16 µg/mL (≈ 15.6 µM) | 256 µg/mL (≈ 249 µM) | 4 µg/mL (≈ 3.89 µM) | CCCCCCCCCCCCCCCC(=O)N[C@H]1CSSC[C@@H](C(N)=O)NC(=O)[C@H](CCCCN)NC(=O)[C@H](CCCCN)NC(=O)[C@H](CCCNC(=N)N)NC(=O)[C@H](CCCNC(=N)N)NC1=O [C7, C16-CRRKKC-NH2] (Palmitoyl-CRRKKC-NH2; disulfide 1-6) | 16 µg/mL | 16 µg/mL | 8 µg/mL | 8 µg/mL | 128 µg/mL | 128 µg/mL | 16 µg/mL | 16 µg/mL |

Source: article PMC7582905, “Effect of Disulfide Cyclization of Ultrashort Cationic Lipopeptides on Antimicrobial Activity and Cytotoxicity” (International Journal of Molecular Sciences, 2020)
